According to US20250049800A1, “VCP/p97 INHIBITOR FOR THE TREATMENT OF CANCER” (CASI Pharmaceuticals, Inc., priority 2021, published 2025):

Key:
Format in all cases: cell-based
[1] = system: MV-4-11 (Human B Myelomoncytic Leukemia cell line); experiment: Combination Index (Chou-Talalay) of Compound 1 with second therapeutic agents; details: for effect of the combination with Compound 1: MV-4-11 (FLT3 homozygous mutant)
Procedure: (§1) Each combination was tested in 3 cell lines: MOML-13 (Human Acute Myeloid Leukemia cell line; Addex Bio), MV-4-11 (Human B Myelomoncytic Leukemia cell line; ATCC), and OCI-AML-3 (Human Acute Myeloid Leukemia cell line).
(§2) Within this range, 20 dose levels were tested for each combination, with each response determined in duplicate. […] The actual drug concentrations in the ratios were determined from the IC50 values obtained for each individual drug.
(§3) Raw data was analyzed using Graph Pad Prism, four parameter logistic fits, and Chou-Talalay drug combination analyses. […] For data points with Fe<0, the fractional effect was set to 0.001. Data points with Fe>0.99 or <0.01 were omitted from the Chou-Talalay analysis because the Chou-Talalay analysis fits data to the Log of the fractional effect, with equal weight applied across the range of effect, such that the high and low end of the dose response, very small changes in effect within the range of experimental error erroneously skew the outcome of the model fit.
(§4) A Combination Index (CI) vs Fractional Effect plot showing the actual combination index plotted vs Fractional effect value was plotted for each combination dose. In this analysis, CI=1 represents additive activity, CI>1 represent less than additive activity (often referred to as antagonism) and CI<1=synergistic activity (better than additive).

[2] = system: MOML-13 (Human Acute Myeloid Leukemia cell line); experiment: as above; details: for effect of the combination with Compound 1: MOML-13 (BRCA2 mutant, FLT3 heterozygous); for Combination Index: agent in combination with Compound 1, CI scores across all 3 ratios averaged, MOML-13
Procedure: as §1, §2, §3, §4

[3] = system: OCI-AML-3 (Human Acute Myeloid Leukemia cell line); experiment: as above; details: for effect of the combination with Compound 1: OCI-AML-3 (FLT3 wildtype)
Procedure: as §1, §2, §3, §4

[4] = system: HCC1937 (Breast); experiment: Cell Titer-Glo viability: single agent IC50 and Compound 1 + PARP inhibitor matrix (Bliss); details: for # in matrix with Bliss >5: 6×6 matrix of PARP inhibitor with Compound 1
Procedure: (§5) The PARP inhibitors used for the study were talazoparib, olaparib and niraparib. […] was used as a reference control. […] For each drug agent on its own, IC50 values in each cell line were determined. Interactions of the combinations of Compound 1 and each PARP inhibitor was assessed as follows: […] Cisplatin and culture media were used as positive and negative control, respectively. The combination activities were assessed using CrownSyn software to determine synergy scores by Bliss Independence and Loewe additivity methods. […] Synergy scores calculated by both Bliss independence model and Loewe additivity model (see Greco, […]., Poch, G., Suhnel, J., Kundi, M., & Bodeker, W. (1992). Consensus on concepts and terminology for combined-action assessment: the […] agreement. […] Without being bound by theory, the Bliss independence model is often applied to asses synergy for non-interacting drugs that elicit their responses independently, e.g., by targeting separate pathways, whereas the Loewe additivity model may be more compatible where both drugs have similar modes of action on the same targets or pathways.

[5] = system: DU4475 (Breast); experiment: as above; details: for # in matrix with Bliss >5: 6×6 matrix of PARP inhibitor with Compound 1; for IC50: Homo sapiens, DU-4475, 72 h, single agent, read-out: Absolute IC50
Procedure: as §5

[6] = system: SK-OV-3 (Ovary); experiment: as above; details: for # in matrix with Bliss >5: 6×6 matrix of PARP inhibitor with Compound 1
Procedure: as §5

[7] = system: OVCAR-8 (Ovary); experiment: as above; details: for # in matrix with Bliss >5: 6×6 matrix of PARP inhibitor with Compound 1; for IC50: Homo sapiens, 72 h, single agent, read-out: Absolute IC50
Procedure: as §5

[8] = system: MX-1 (Breast); experiment: as above; details: for # in matrix with Bliss >5: 6×6 matrix of PARP inhibitor with Compound 1
Procedure: as §5

[9] = system: IGR-OV1 (Ovary); experiment: as above; details: for # in matrix with Bliss >5: 6×6 matrix of PARP inhibitor with Compound 1; for IC50: Homo sapiens, IGROV-1, 72 h, single agent, read-out: Absolute IC50
Procedure: as §5

[10] = system: DoTc2 4510 (Uterus/Cervix); experiment: as above; details: for # in matrix with Bliss >5: 6×6 matrix of PARP inhibitor with Compound 1
Procedure: as §5

[11] = system: HCC1395 (Breast); experiment: as above; details: for # in matrix with Bliss >5: 6×6 matrix of PARP inhibitor with Compound 1; for IC50: Homo sapiens, 72 h, single agent, read-out: Absolute IC50
Procedure: as §5

[12] = system: HCC1806 (Breast); experiment: as above; details: for # in matrix with Bliss >5: 6×6 matrix of PARP inhibitor with Compound 1; for IC50: Homo sapiens, 72 h, single agent, read-out: Absolute IC50
Procedure: as §5

[13] = system: Capan-1 (Pancreas); experiment: as above; details: for # in matrix with Bliss >5: 6×6 matrix of PARP inhibitor with Compound 1; for IC50: Homo sapiens, 72 h, single agent, read-out: Absolute IC50
Procedure: as §5

[14] = Homo sapiens, single agent, read-out: Absolute IC50

| Structure (SMILES) | IC50 [7] | IC50 [11] | IC50 [12] | effect of the combination with Compound 1 [1] | effect of the combination with Compound 1 [2] | Combination Index [2] | effect of the combination with Compound 1 [3] | # in matrix with Bliss >5 [4] | # in matrix with Bliss >5 [5] | IC50 [5] | # in matrix with Bliss >5 [6] | # in matrix with Bliss >5 [7] | # in matrix with Bliss >5 [8] | # in matrix with Bliss >5 [9] | IC50 [9] | # in matrix with Bliss >5 [10] | # in matrix with Bliss >5 [11] | # in matrix with Bliss >5 [12] | # in matrix with Bliss >5 [13] | IC50 [13] | other results |
| --- | --- | --- | --- | --- | --- | --- | --- | --- | --- | --- | --- | --- | --- | --- | --- | --- | --- | --- | --- | --- | --- |
| CC(C)C[C@H](NC(=O)CNC(=O)c1cc(Cl)ccc1Cl)B(O)O [Ixazomib] |  |  |  | antagonistic | antagonistic | 1.413 | antagonistic |  |  |  |  |  |  |  |  |  |  |  |  |  | Combination Index ([1]; agent in combination with Compound 1, CI scores across all 3 ratios averaged, MV-4-11): 1.546; Combination Index ([3]; agent in combination with Compound 1, CI scores across all 3 ratios averaged, OCI-AML-3): 1.438 |
| CC1(C)CCC(CN2CCN(c3ccc(C(=O)NS(=O)(=O)c4ccc(NCC5CCOCC5)c([N+](=O)[O-])c4)c(Oc4cnc5[nH]ccc5c4)c3)CC2)=C(c2ccc(Cl)cc2)C1 [Venetoclax] |  |  |  |  |  | 0.730 |  |  |  |  |  |  |  |  |  |  |  |  |  |  |  |
| Nc1ccn([C@@H]2O[C@H](CO)[C@@H](O)[C@@H]2O)c(=O)n1 [cytarabine] |  |  |  | additive effects | additive effects |  | additive effects |  |  |  |  |  |  |  |  |  |  |  |  |  |  |

Now from value to compound, other results behind:

| IC50 [7] | IC50 [11] | IC50 [12] | Structure (SMILES) | effect of the combination with Compound 1 [1] | effect of the combination with Compound 1 [2] | Combination Index [2] | effect of the combination with Compound 1 [3] | # in matrix with Bliss >5 [4] | # in matrix with Bliss >5 [5] | IC50 [5] | # in matrix with Bliss >5 [6] | # in matrix with Bliss >5 [7] | # in matrix with Bliss >5 [8] | # in matrix with Bliss >5 [9] | IC50 [9] | # in matrix with Bliss >5 [10] | # in matrix with Bliss >5 [11] | # in matrix with Bliss >5 [12] | # in matrix with Bliss >5 [13] | IC50 [13] | other results |
| --- | --- | --- | --- | --- | --- | --- | --- | --- | --- | --- | --- | --- | --- | --- | --- | --- | --- | --- | --- | --- | --- |
| > 5 µM | > 5 µM | > 5 µM | NC(=O)c1cccc2cn(-c3ccc([C@@H]4CCCNC4)cc3)nc12 [Niraparib, niraparib] |  |  |  |  | 15/36 | 10/36 | 1020 nM | 8/36 | 9/36 | 4/36 | 7/36 | > 5 µM | 6/36 | 6/36 | 9/36 | 2/36 | > 5 µM |  |
| > 5 µM | > 5 µM | > 5 µM | O=C(c1cc(Cc2n[nH]c(=O)c3ccccc23)ccc1F)N1CCN(C(=O)C2CC2)CC1 [Olaparib, olaparib] |  |  |  |  | 23/36 | 13/36 | 4520 nM | 10/36 | 8/36 | 3/36 | 12/36 | > 5 µM | 5/36 | 8/36 | 17/36 | 4/36 | > 5 µM | IC50 ([8]; single agent, read-out: Absolute IC50): > 5 µM; IC50 [10, 14]: > 5 µM |
| > 5 µM | > 5 µM | > 5 µM | Cn1ncnc1[C@H]1c2n[nH]c(=O)c3cc(F)cc(c23)N[C@@H]1c1ccc(F)cc1 [Talazoparib] |  | strong synergy |  |  | 8/36 | 15/36 | 30 nM | 13/36 | 6/36 | 0/36 | 7/36 |  | 5/36 | 0/36 | 3/36 | 4/36 | 2.64 µM | IC50 [4, 14]: > 5 µM; IC50 [6, 14]: > 5 µM |
